Laboratory results as given in BindingDB's records for doi:10.1016/s0028-3908(00)00128-3 (University of Toronto, 2001).

biological target: Metabotropic glutamate receptor 8 (Rattus norvegicus, UniProt P70579)
Sequence (P70579 whole entry): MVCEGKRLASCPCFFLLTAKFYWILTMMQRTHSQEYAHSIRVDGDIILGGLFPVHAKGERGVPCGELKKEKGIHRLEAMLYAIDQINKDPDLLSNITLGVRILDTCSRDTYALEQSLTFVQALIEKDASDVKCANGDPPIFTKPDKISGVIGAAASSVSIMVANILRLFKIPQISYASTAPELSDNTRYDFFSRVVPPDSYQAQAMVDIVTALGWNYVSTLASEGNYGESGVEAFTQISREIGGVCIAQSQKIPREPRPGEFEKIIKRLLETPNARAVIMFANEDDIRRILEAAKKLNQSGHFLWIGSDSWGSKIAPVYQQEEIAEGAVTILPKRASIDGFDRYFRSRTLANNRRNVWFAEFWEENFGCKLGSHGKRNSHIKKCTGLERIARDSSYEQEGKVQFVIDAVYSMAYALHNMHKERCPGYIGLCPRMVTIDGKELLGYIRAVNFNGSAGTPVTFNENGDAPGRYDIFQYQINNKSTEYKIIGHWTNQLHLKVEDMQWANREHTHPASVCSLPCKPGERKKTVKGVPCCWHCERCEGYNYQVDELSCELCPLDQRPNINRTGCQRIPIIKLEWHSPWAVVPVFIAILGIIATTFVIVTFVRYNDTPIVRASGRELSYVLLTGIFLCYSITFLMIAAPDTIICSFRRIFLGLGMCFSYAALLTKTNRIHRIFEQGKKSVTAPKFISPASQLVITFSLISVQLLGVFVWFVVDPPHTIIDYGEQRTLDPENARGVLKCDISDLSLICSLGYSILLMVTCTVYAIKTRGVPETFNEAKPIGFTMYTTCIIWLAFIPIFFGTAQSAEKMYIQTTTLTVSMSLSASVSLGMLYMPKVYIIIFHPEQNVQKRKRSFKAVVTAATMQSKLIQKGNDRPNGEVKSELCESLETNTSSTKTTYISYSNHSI

| Compound | Ki |
| --- | --- |
| N[C@@H](CCP(=O)(O)O)C(=O)O [2-Amino-4-phosphono-butyric acid] | 2.7 µM |
| N[C@H](CCP(=O)(O)O)C(=O)O [D-AP4] | > 10 µM |
| NC(CCC(=O)O)C(=O)O (configuration not stated) [glutamic acid dianion] | > 10 µM |

Results, then the compound that gave them:

| Ki | Compound |
| --- | --- |
| 1.2 µM | N[C@@H](COP(=O)(O)O)C(=O)O |
| 0.48 µM | CC(N)(C(=O)O)c1ccc(P(=O)(O)O)cc1 (configuration not stated) |
| > 10 µM | C[C@@](N)(C(=O)O)c1ccc(C(=O)O)cc1 (racemic) |
| 1.3 µM | NC(C(=O)O)c1ccc(P(=O)(O)O)cc1 (configuration not stated) [Amino-(4-phosphono-phenyl)-acetic acid(RS-PPG)] |
